In US20260262643A1, “HERBICIDAL BENZOXAZINES” (FMC CORPORATION, priority 2022, published 2026):

Key:
rice = assay: Test D flooded paddy test; format: in vivo, Oryza sativa; settings: 250 g ai/ha, applied to paddy water, visual rating after 13 to 14 days, scale 0 to 100 (0 no effect, 100 complete control)
Summary of the method: (§1)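 Plants grown to the 2-leaf stage; pots flooded to 3 cm above soil at treatment and held at that depth throughout. Test compounds applied directly to the paddy water. After 13 to 14 days in a greenhouse, response was rated visually versus controls on a 0 (no effect) to 100 (complete control) scale.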

horseweed = assay: Test C postemergence; format: in vivo, Erigeron canadensis; settings: 10 days
Summary of the method: (§2)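 Greenhouse herbicide screen, 10-day duration. Test chemicals in solvent/surfactant blend were sprayed onto soil at sowing (pre) or onto 2–10 cm seedlings at one to two leaves (post); injury scored visually against controls, 0 no effect to 100 complete control.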

pigweed, palmer [1] = assay: Test C postemergence; format: in vivo, Amaranthus palmeri; settings: postemergence, 10 days
Summary of the method: as §2

oat, wild [2] = assay: Test C postemergence; format: in vivo, Avena fatua; settings: postemergence, 10 days
Summary of the method: as §2

corn [3] = assay: Test C postemergence; format: in vivo, Zea mays; settings: 10 days
Summary of the method: as §2

barnyardgrass [4] = assay: Test C postemergence; format: in vivo, Echinochloa crusgalli; settings: 10 days
Summary of the method: as §2

oat, wild [5] = assay: Test C preemergence; format: in vivo, Avena fatua; settings: preemergence, 0 to 100 scale (0 no effect, 100 complete control)
Summary of the method: as §2

ryegrass, Italian [6] = assay: Test C preemergence; format: in vivo, Lolium multiflorum; settings: preemergence, 0 to 100 scale (0 no effect, 100 complete control)
Summary of the method: as §2

soybean [7] = assay: Test C preemergence; format: in vivo, Glycine max; settings: preemergence, 0 to 100 scale (0 no effect, 100 complete control)
Summary of the method: as §2

kochia [8] = assay: Test C postemergence; format: in vivo, Bassia scoparia; settings: postemergence, 10 days
Summary of the method: as §2

ragweed [9] = assay: Test C preemergence; format: in vivo, Ambrosia artemisiifolia; settings: preemergence, 0 to 100 scale (0 no effect, 100 complete control)
Summary of the method: as §2

kochia [10] = assay: Test C preemergence; format: in vivo, Bassia scoparia; settings: preemergence, 0 to 100 scale (0 no effect, 100 complete control)
Summary of the method: as §2

wheat [11] = assay: Test C postemergence; format: in vivo, Triticum aestivum; settings: postemergence, 10 days
Summary of the method: as §2

pigweed, palmer [12] = assay: Test C preemergence; format: in vivo, Amaranthus palmeri; settings: preemergence, 0 to 100 scale (0 no effect, 100 complete control)
Summary of the method: as §2

soybean [13] = assay: Test C postemergence; format: in vivo, Glycine max; settings: postemergence, 10 days
Summary of the method: as §2

galium = assay: Test C postemergence; format: in vivo, Galium aparine; settings: 10 days
Summary of the method: as §2

sedge, umbrella = assay: Test D flooded paddy test; format: in vivo, Cyperus difformis; settings: 250 g ai/ha, applied to paddy water, visual rating after 13 to 14 days, scale 0 to 100 (0 no effect, 100 complete control)
Summary of the method: as §1

corn [14] = assay: Test C preemergence; format: in vivo, Zea mays; settings: preemergence, 0 to 100 scale (0 no effect, 100 complete control)
Summary of the method: as §2

barnyardgrass [15] = assay: Test C preemergence; format: in vivo, Echinochloa crusgalli; settings: 0 to 100 scale (0 no effect, 100 complete control); for Barnyardgrass plant response rating: preemergence
Summary of the method: as §2

green foxtail [16] = assay: Test C postemergence; format: in vivo, Setaria viridis; settings: 10 days
Summary of the method: as §2

ducksalad = assay: Test D flooded paddy test; format: in vivo, Heteranthera limosa; settings: 250 g ai/ha, applied to paddy water, visual rating after 13 to 14 days, scale 0 to 100 (0 no effect, 100 complete control)
Summary of the method: as §1

blackgrass [17] = assay: Test C preemergence; format: in vivo, Alopecurus myosuroides; settings: 0 to 100 scale (0 no effect, 100 complete control); for Blackgrass plant response rating: preemergence
Summary of the method: as §2

blackgrass [18] = assay: Test C postemergence; format: in vivo, Alopecurus myosuroides; settings: 10 days
Summary of the method: as §2

barnyardgrass [19] = assay: Test D flooded paddy test; format: in vivo, Echinochloa crus-galli; settings: 250 g ai/ha, applied to paddy water, visual rating after 13 to 14 days, scale 0 to 100 (0 no effect, 100 complete control)
Summary of the method: as §1

ragweed [20] = assay: Test C postemergence; format: in vivo, Ambrosia artemisiifolia; settings: postemergence, 10 days
Summary of the method: as §2

green foxtail [21] = assay: Test C preemergence; format: in vivo, Setaria viridis; settings: preemergence, 0 to 100 scale (0 no effect, 100 complete control)
Summary of the method: as §2

ryegrass, Italian [22] = assay: Test C postemergence; format: in vivo, Lolium multiflorum; settings: postemergence, 10 days
Summary of the method: as §2

wheat [23] = assay: Test C preemergence; format: in vivo, Triticum aestivum; settings: preemergence, 0 to 100 scale (0 no effect, 100 complete control)
Summary of the method: as §2

[24] = 125 g ai/ha, postemergence, 0 to 100 scale, 0 no effect, 100 complete control
[25] = 500 g ai/ha, postemergence, 0 to 100 scale (0 no effect, 100 complete control)
[26] = 125 g ai/ha, 0 to 100 scale, 0 no effect, 100 complete control
[27] = 500 g ai/ha, 0 to 100 scale (0 no effect, 100 complete control)
[28] = Postemergence, 500 g ai/ha, visual 0 to 100 scale (0 no effect, 100 complete control)
[29] = Preemergence, 500 g ai/ha, visual rating after 10 days

## CC(C)c1ncn(-c2cccc(C(=O)N3CC(C(F)(F)F)Oc4c(Cl)cccc43)c2)n1 (single isomer, unassigned) [Compound 289]
rice
  Plant response rating, Rice (Flood): 10
horseweed; [24]
  Plant response rating, Horseweed: 0
horseweed; [25]
  Plant response rating, Horseweed: 40
pigweed, palmer [1]; [26]
  Plant response rating, Pigweed, Palmer: 90
pigweed, palmer [1]; [27]
  Plant response rating, Pigweed, Palmer: 100
oat, wild [2]; [26]
  Plant response rating, Oat, Wild: 30
oat, wild [2]; [27]
  Plant response rating, Oat, Wild: 60
Corn [3]; [24]
  Plant response rating, Corn: 20
Corn [3]; [25]
  Plant response rating, Corn: 30
Barnyardgrass [4]; [24]
  Plant response rating, Barnyardgrass: 30
Barnyardgrass [4]; [25]
  Plant response rating, Barnyardgrass: 60
oat, wild [5]; 500 g ai/ha
  Oat, Wild plant response rating: 90
oat, wild [5]; Test C, 125 g ai/ha
  Oat, Wild plant response rating: 80
ryegrass, Italian [6]; 500 g ai/ha
  Ryegrass, Italian plant response rating: 100
ryegrass, Italian [6]; Test C, 125 g ai/ha
  Ryegrass, Italian plant response rating: 100
Soybean [7]; 500 g ai/ha
  Soybean plant response rating: 90
Soybean [7]; Test C, 125 g ai/ha
  Soybean plant response rating: 90
Kochia [8]; [26]
  Plant response rating, Kochia: 80
Kochia [8]; [27]
  Plant response rating, Kochia: 90
Ragweed [9]; 500 g ai/ha
  Ragweed plant response rating: 70
Ragweed [9]; Test C, 125 g ai/ha
  Ragweed plant response rating: 50
Kochia [10]; 500 g ai/ha
  Kochia plant response rating: 100
Kochia [10]; Test C, 125 g ai/ha
  Kochia plant response rating: 70
Wheat [11]; [26]
  Plant response rating, Wheat: 20
Wheat [11]; [27]
  Plant response rating, Wheat: 40
pigweed, palmer [12]; 500 g ai/ha
  Pigweed, Palmer plant response rating: 100
pigweed, palmer [12]; Test C, 125 g ai/ha
  Pigweed, Palmer plant response rating: 100
Soybean [13]; [26]
  Plant response rating, Soybean: 100
Soybean [13]; [27]
  Plant response rating, Soybean: 90
galium; [24]
  Plant response rating, Galium: 100
galium; [25]
  Plant response rating, Galium: 100
sedge, umbrella
  Plant response rating, Sedge, Umbrella (Flood): 100
Corn [14]; 500 g ai/ha
  Corn plant response rating: 20
Corn [14]; Test C, 125 g ai/ha
  Corn plant response rating: 10
Barnyardgrass [15]; 500 g ai/ha
  Barnyardgrass plant response rating: 100
Barnyardgrass [15]; Test C, 125 g ai/ha
  Barnyardgrass plant response rating: 60
Green foxtail [16]; [24]
  Plant response rating, Foxtail, Green: 20
Green foxtail [16]; [25]
  Plant response rating, Foxtail, Green: 90
ducksalad
  Plant response rating, Ducksalad (Flood): 65
Blackgrass [17]; 500 g ai/ha
  Blackgrass plant response rating: 90
Blackgrass [17]; Test C, 125 g ai/ha
  Blackgrass plant response rating: 80
Blackgrass [18]; [24]
  Plant response rating, Blackgrass: 30
Blackgrass [18]; [25]
  Plant response rating, Blackgrass: 100
Barnyardgrass [19]
  Plant response rating, Barnyardgrass (Flood): 50
Ragweed [20]; [26]
  Plant response rating, Ragweed: 60
Ragweed [20]; [27]
  Plant response rating, Ragweed: 70
Green foxtail [21]; 500 g ai/ha
  Foxtail, Green plant response rating: 100
Green foxtail [21]; Test C, 125 g ai/ha
  Foxtail, Green plant response rating: 100
ryegrass, Italian [22]; [26]
  Plant response rating, Ryegrass, Italian: 40
ryegrass, Italian [22]; [27]
  Plant response rating, Ryegrass, Italian: 90
Wheat [23]; 500 g ai/ha
  Wheat plant response rating: 50
Wheat [23]; Test C, 125 g ai/ha
  Wheat plant response rating: 30

## COC[C@H]1CN(C(=O)c2cc(-n3cnc(C4CC4)n3)ccc2C)c2cccc(Cl)c2O1 [Compound 266]
rice
  Plant response rating, Rice (Flood): 15
horseweed; [24]
  Plant response rating, Horseweed: 20
horseweed; [28]
  Plant response rating, Horseweed: 80
pigweed, palmer [1]; [26]
  Plant response rating, Pigweed, Palmer: 90
oat, wild [2]; [26]
  Plant response rating, Oat, Wild: 10
Corn [3]; [24]
  Plant response rating, Corn: 70
Corn [3]; [28]
  Plant response rating, Corn: 70
Barnyardgrass [4]; [24]
  Plant response rating, Barnyardgrass: 70
Barnyardgrass [4]; [28]
  Plant response rating, Barnyardgrass: 90
oat, wild [5]; 500 g ai/ha
  Oat, Wild plant response rating: 90
oat, wild [5]; Test C, 125 g ai/ha
  Oat, Wild plant response rating: 40
ryegrass, Italian [6]; 500 g ai/ha
  Ryegrass, Italian plant response rating: 90
ryegrass, Italian [6]; Test C, 125 g ai/ha
  Ryegrass, Italian plant response rating: 80
Soybean [7]; 500 g ai/ha
  Soybean plant response rating: 100
Soybean [7]; Test C, 125 g ai/ha
  Soybean plant response rating: 80
Kochia [8]; [26]
  Plant response rating, Kochia: 80
Ragweed [9]; 500 g ai/ha
  Ragweed plant response rating: 30
Ragweed [9]; Test C, 125 g ai/ha
  Ragweed plant response rating: 0
Kochia [10]; 500 g ai/ha
  Kochia plant response rating: 90
Kochia [10]; Test C, 125 g ai/ha
  Kochia plant response rating: 90
Wheat [11]; [26]
  Plant response rating, Wheat: 20
pigweed, palmer [12]; 500 g ai/ha
  Pigweed, Palmer plant response rating: 100
pigweed, palmer [12]; Test C, 125 g ai/ha
  Pigweed, Palmer plant response rating: 100
Soybean [13]; [26]
  Plant response rating, Soybean: 100
galium; [24]
  Plant response rating, Galium: 100
galium; [28]
  Plant response rating, Galium: 100
sedge, umbrella
  Plant response rating, Sedge, Umbrella (Flood): 95
Corn [14]; 500 g ai/ha
  Corn plant response rating: 40
Corn [14]; Test C, 125 g ai/ha
  Corn plant response rating: 20
Barnyardgrass [15]; [29]
  Plant response rating, Barnyardgrass: 80
Barnyardgrass [15]; Test C, 125 g ai/ha
  Barnyardgrass plant response rating: 50
Green foxtail [16]; [24]
  Plant response rating, Foxtail, Green: 90
Green foxtail [16]; [28]
  Plant response rating, Foxtail, Green: 90
ducksalad
  Plant response rating, Ducksalad (Flood): 75
Blackgrass [17]; [29]
  Plant response rating, Blackgrass: 60
Blackgrass [17]; Test C, 125 g ai/ha
  Blackgrass plant response rating: 30
Blackgrass [18]; [24]
  Plant response rating, Blackgrass: 50
Blackgrass [18]; [28]
  Plant response rating, Blackgrass: 80
Barnyardgrass [19]
  Plant response rating, Barnyardgrass (Flood): 0
Ragweed [20]; [26]
  Plant response rating, Ragweed: 70
Green foxtail [21]; 500 g ai/ha
  Foxtail, Green plant response rating: 100
Green foxtail [21]; Test C, 125 g ai/ha
  Foxtail, Green plant response rating: 100
ryegrass, Italian [22]; [26]
  Plant response rating, Ryegrass, Italian: 70
Wheat [23]; 500 g ai/ha
  Wheat plant response rating: 70
Wheat [23]; Test C, 125 g ai/ha
  Wheat plant response rating: 30
